Reference: article PMC5655689, “Therapeutic potential of the phosphino Cu(I) complex (HydroCuP) in the treatment of solid tumors” (Scientific Reports, 2017)

Key:
[1] = system: LoVo colorectal oxaliplatin-sensitive xenograft; experiment: In vivo activity toward LoVo (OXP-sensitive) tumor xenograft in BALB/c nu/nu mice; details: 30 mg/kg daily i.p. from day 14, day 30
Protocol: To this aim, we developed the OXP-sensitive and OXP-resistant LoVo xenografts in BALB/c nu/nu mice. […] OXP-sensitive or OXP-resistant LoVo cells (1 × 10^7) were injected in the flank of mice. Once tumor was established (tumor volumes of about 0.4 cm^3, around 14 days after tumor inoculation), mice were randomly divided into six groups (6 animals per group, 8 controls). The HydroCuP-treated groups (6 mice each group) received daily 30 mg/kg by i.p. injection and the OXP-treated group was given 2 mg/kg by i.p. injection. At day 30, animals were sacrificed, and the inhibition of tumor growth was determined (Fig. 4, panel A). Measurements of body weights were recorded from day 14 every 2 days until the experimental endpoint (Fig. 4, panel B).
(A) LoVo and LoVo-OXP tumor xenografts in 6-week-old BALB/c nu/nu mice by injecting 1 × 10^7 tumor cells subcutaneously on the left dorsal flank. After 24 h from tumor implantation, mice randomly divided into six groups (6 animals per group). Chemotherapy delayed until day 14 (tumor volumes of about 0.4 cm^3). From day 14, HydroCuP dosed daily at 30 mg/kg i.p., OXP dosed daily at 2 mg/kg i.p. At day 30, animals sacrificed, and the inhibition of tumor growth determined by comparing the volume of the control group and the treatment group expressed as percentage referred to the control animals. Error bars indicate the S.D. *p < 0.05, **p < 0.01, with respect to control. […] Body weight was measured every two days and was taken as a parameter of systemic toxicity. The error bars indicate the S.D. **P < 0.01; *P < 0.05.
LoVo and LoVo-OXP tumor xenografts were established in 6-week-old BALB/c nu/nu mice by injecting 1 × 10^7 tumor cells subcutaneously (100 μL in serum free medium) on the left dorsal flank. After 24 h from tumor implantation, mice were randomly divided into six groups (6 animals per group, 8 controls). Chemotherapy was delayed until the tumor was about 0.4 cm^3 (day 14). From day 14, HydroCuP was dosed daily at 30 mg/kg i.p. whereas OXP was dosed daily at 2 mg/kg i.p. Measurements of body weights and tumor volumes were recorded from day 14 every 2 days until the experimental endpoint. The long axis (L) and the short axis (S) were measured with callipers, and the tumor volume (V) was calculated using the following equation: V = SxSxL/2. At day 30, animals were sacrificed, and the inhibition of tumor growth was determined by comparing the volume of the control group and the treatment group expressed as percentage referred to the control animals.

[2] = system: HCT-15 human colon cancer spheroids; experiment: 3D spheroid cell viability, acid phosphatase (APH) assay, HCT-15; type: cell-based; details: HCT-15 spheroids, 72 h
Protocol: In order to improve the predictive capacity of the in vitro assays, we tested HydroCuP activity in two 3D cell cultures of human colon cancer cells, HCT-15 and LoVo. The colon cancer spheroids were treated with HydroCuP for 72 h and the cell viability was assessed by means of the acid phosphatase (APH) assay (Fig. 1, panel A).
Figure 1 Activity in 3D cell cultures. (A) Spheroids (2.5 × 10^3 cells/well) were treated for 72 h with increasing concentrations of tested compounds. The growth inhibitory effect was evaluated by means of APH test. IC50 values were calculated from the dose-survival curves by four parameter logistic model (P < 0.05). SD = standard deviation.
Spheroids were initiated in liquid overlay by seeding 2.5 × 10^3 HCT-15 and LoVo cells/well in phenol red-free RPMI-1640 medium (Sigma Chemical Co.), containing 10% FCS and supplemented with 20% methyl cellulose stock solution. A total of 150 μl of this cell suspension was transferred to each well of a round bottom non-tissue culture treated 96 well-plate (Greiner Bio-one, Kremsmünster, Austria) to allow spheroid formation within 72 h.
A modified APH assay, which is based on quantification of cytosolic acid phosphatase activity, was used for determining cell viability in spheroids. Briefly, the pre-seeded spheroids were treated with fresh medium containing the compound to be studied at the appropriate concentration (range 5–150 μM). Triplicate cultures were established for each treatment. After 72 h, each well was treated with 100 μL of the assay buffer (0.1 M sodium acetate, 0.1% Triton-X-100, supplemented with ImmunoPure p-nitrophenyl phosphate; Sigma Chemical Co.) and, following 3 h of incubation, 10 μL of 1 M NaOH solution were added. The inhibition of the cell growth induced by the tested complexes was detected by measuring the absorbance of each well at 405 nm, using a Bio-Rad 680 microplate reader. Mean absorbance for each drug dose was expressed as a percentage of the control untreated well absorbance (T/C) and plotted vs drug concentration. IC50 values, the drug concentrations that reduce the mean absorbance at 405 nm 50% of those in the untreated control wells, were calculated by four-parameter logistic (4-PL) model. Evaluation was based on means from at least four independent experiments.

F[P-](F)(F)(F)(F)F.OC[P+](CO)(CO)[Cu-3]([P+](CO)(CO)CO)([P+](CO)(CO)CO)[P+](CO)(CO)CO [HydroCuP, [Cu(thp)4][PF6]]
Inhibition of tumor growth (decrease in final tumor volume) [1]: about 65%
IC50 fold lower than CDDP [2]: about 2.5
IC50 ([2]; APH test, read-out: IC50 (μM) ± SD HCT-15): 27 ± 4.25 µM
